Data: patent publication US20140065655A1, “SCREENING METHOD FOR SUBSTANCE ACTING ON MAINTENANCE OF EPITHELIAL PROPERTIES OF CELL” (SCIVAX CORPORATION, priority 2012, published 2014)

Assays:
[1] = tested on: human-lung-cancer-cells derived strain A549; experiment: Effect of epithelial-mesenchymal transition inhibitor on morphology and hypoxic area (LOX-1 red signal) of spheroids on NanoCulture plate; type: cell-based
Procedure: 5-%-FBS-containing DMEM culture medium and 1.0-%-Matrigel (registered trademark) containing DMEM culture medium were added in respective wells of a cell culture vessels NanoCulture (registered trademark) plate (made by SCIVAX corporation, 384-well plate, material of concavity-convexity structure surface=polymethylpentene (TPX made by MITSUI Chemical Co., Ltd.), planar shape of concavo-convex structure=square, width between unit structures (line width)=700 nm, minimum internal diameter of unit structure=3 μm, and depth=1 μm) by 25 μl, and were subjected to centrifugal force for five minutes at 1000×g.
A cell suspension having human-lung-cancer-cells derived strain A549 adjusted to 13.5×10^4 cells/ml by a 5-%-FBS-containing DMEM culture medium was added to each well of the above-explained plate by 25 μl (the number of cells was 3.4×10^3 cells/well, and the final concentration of the culture medium additive was 5% FBS and 0.5% Matrigel).
At the third day of the culturing, TGF-β2 (made by R&D systems corporation, 302-B2-002) and TNF-α (made by R&D systems corporation, 210-TA-010) which were epithelial-mesenchymal transition inducers were added to each well in such a way that a final concentration became 5 ng/ml and 10 ng/ml, respectively. While at the same time, SB431542 (made by Miltenyi Biotec corporation, 130-095-561) that was an inhibitor of TGF-β2 was added in such a way that a final concentration became 10 μM.
Dimethyl-sulfoxide was added to all wells where no SB431542 was added in such a way that a final concentration became 0.1%.
At the fifth day of the culturing, a hypoxic area detection reagent LOX-1 (made by SCIVAX corporation) was added to each well in such a way that a final concentration became 2 μM. LOX-1 is a reagent that contains iridium complex which emits red phosphorescence.
An observation through a fluorescent microscope was carried out at the sixth day of the culturing.

E-cadherin = experiment: qRT-PCR expression level of E-cadherin gene (epithelial marker) in A549 spheroids; type: cell-based, human; details: A549, SB431542 10 μM with TGF-β2 5 ng/ml and TNF-α 10 ng/ml, sixth day, corrected by TBP (FIG. 6)
Procedure: (§1) In order to verify whether or not a change in the morphology of the spheroid confirmed in the second example reflects an epithelial-mesenchymal transition and an epithelial-mesenchymal transition inhibition, a result of measuring an expression level of a gene that is known as an epithelial or mesenchymal marker through qRT-PCR is shown in FIGS. 6 to 9. The processes from (1) pre-incubation to (3) addition of the epithelial-mesenchymal transition inducer and inhibitor were carried out likewise the second example. Next, at the sixth day of the culturing, all RNAs were extracted from each sample using RNeasy Plus Mini Kit (made by QIAGEN corporation), and such RNAs having undergone reverse transcription using PrimeScript RT reagent Kit (made by TAKARABIO Inc.) were used for qRT-PCR. SYBER Premix Ex Tagll (made by TAKARABIO Inc.) was used for PCR. Moreover, Thermal Cycler Dice (made by TAKARABIO Inc.) was used for a reaction and a detection. Note that data is corrected by the expression level of internal standard gene (TBP), and is shown as a relative value when the expression level of the control is taken as 1.

N-cadherin = experiment: qRT-PCR expression level of N-cadherin gene (mesenchymal marker) in A549 spheroids; type: cell-based, human; details: A549, SB431542 10 μM with TGF-β2 5 ng/ml and TNF-α 10 ng/ml, sixth day, corrected by TBP (FIG. 7)
Procedure: as §1

[2] = A549, SB431542 10 μM with TGF-β2 5 ng/ml and TNF-α 10 ng/ml, LOX-1 2 μM, sixth day

Structure (SMILES): NC(=O)c1ccc(-c2nc(-c3ccc4c(c3)OCO4)c(-c3ccccn3)[nH]2)cc1 [SB431542]
- morphology of spheroids (bright field image) ([1]; A549, SB431542 10 μM with TGF-β2 5 ng/ml and TNF-α 10 ng/ml added at third day, observed sixth day, compared with well where no inhibitor was added): the collapse of spheroids were suppressed and the contours of the spheroids had a small concavity and convexity
- red intensity and red area (hypoxic area, LOX-1, fluorescent field image) [1, 2]: the red intensity was high and the red area was large
- red signal (quantified, FIG. 5) relative to the well where no inhibitor was added [1, 2]: about twice
- expression level of E-cadherin (E-cadherin): ~60 % of the control
- expression level of N-cadherin (N-cadherin): decreased to substantially same level as that of the control
